According to US12642856B2, “Degraders of hepatitis C virus NS3/4A protein” (DANA-FARBER CANCER INSTITUTE, INC., priority 2018, dated 2026):
Like-named read-outs stand apart in the source and are kept apart here.

Tests used:
[1] = test system: HCV subgenomic replicon in Huh7.5 cells; assay: Antiviral subgenomic replicon assay; assay type: cell-based; settings: Hepatitis C virus, read-out: IC50, 50% reduction in reporter (luciferase) expression levels
Protocol: (§1) The antiviral activity of the degraders was evaluated in cell culture in a subgenomic replicon assay and an infectious assay. In the subgenomic replicon assay, the hepatoma cell line Huh7.5 was transfected with a HCV subgenomic replicon and treated with small molecules. The luciferase activity encoded by the subgenomic replicon served as a measure for viral replication. In the infectious assay, Huh7.5 cells were infected with HCV, and treated with small molecules. The amount of infectious virus released to the supernatants after treatment with the small molecule degraders served as a measure for their antiviral activity. […] The activity of the compounds described herein is dependent on protein degradation mediated by the cereblon E3 ligase, as HCV NS3 levels are partially rescued in the cereblon-deficient Huh7.5 cell line.
Huh7.5 cells were electroporated with the HCV subgenomic replicon and treated after 24 hours with a range of small molecule concentrations. The luciferase activity encoded by the replicon was measured in cells at 48 hours post-electroporation/24 hours post-treatment. The concentration of compound that led to a 50% reduction in reporter expression levels (IC50) was determined by non-linear regression.

HCV NS3 fusion protein = molecular target: T1, HCV NS3 fusion protein (UniProt P27958+Q96SW2); assay: NS3 degradation competition assay with lenalidomide; assay type: cell-based, Hepatitis C virus; settings: Western blot; for effect of lenalidomide on compound-induced degradation of NS3: excess of cereblon ligand lenalidomide
T1 construct: expressing the full-length HCV NS3 protein fused to eGFP; mCherry via FMVD 2A self-cleavage linker (C, cleaved yes); expressed in transfected cells
Description: The expression of the NS3 fusion protein was induced prior to the treatment of the NS3 expressing cells with an excess of the cereblon ligand lenalidomide.
FIG. 3 is a photograph of a Western blot showing degradation of HCV NS3 in the absence and presence of lenalidomide.

[2] = molecular target: T2, full-length HCV NS3 protein fused to eGFP (UniProt P27958+Q96SW2); assay: Transient cellular HCV NS3 degradation assay; assay type: cell-based, Hepatitis C virus; settings: for degradation of HCV NS3 by Western blot: 4-hour and 24-hour treatments, NS3-eGFP and NS3-eGFP-mCherry fusion proteins; for DC50: read-out: IC50, concentration that led to a 50% reduction in NS3-eGFP accumulation, flow cytometry; for DC50 / degradation of transiently expressed HCV NS3 (decrease in NS3-eGFP abundance): 4 hour treatment; for degradation of transiently expressed HCV NS3 (decrease in NS3-eGFP abundance): increasing concentrations
T2 construct: expressing the full-length HCV NS3 protein fused to eGFP; mCherry via FMVD 2A self-cleavage linker (C, cleaved yes); expressed in transfected cells
Description: A system was set up to monitor NS3 degradation in the absence of other processes of the infectious viral cycle. […] Expressed in the absence of its cofactor, NS4A, the NS3 protein lacks any enzymatic activity, and the abundance of the NS3-eGFP fusion protein can be reliably monitored by eGFP fluorescence. Since the mCherry portion of the fusion protein is cleaved off during translation, its abundance in cells is not affected by small molecule-induced degradation of NS3-eGFP, and thus it serves as a control for protein expression. […]
The NS3 expressing cells were treated with increasing concentrations of compounds 13 and 22 for 4 hours. […] Compound 11 is an alpha-hydroxylamide analog of compound 13 that cannot form a covalent bond with the catalytic serine of the HCV NS3/4A protease due to a modification of the α-ketoamide group. […] The NS3 expressing cells were treated with increasing concentrations of compounds for 4 hours.

HCV in Huh7.5 cells = assay: Antiviral infectious assay (TCID50); assay type: cell-based, Hepatitis C virus; settings: Hepatitis C virus; Huh7.5 cells; 48 hours post-infection/24 hours post-treatment; TCID50; read-out: IC50, 50% reduction in viral titers
Protocol: as §1
Huh7.5 cells were infected with HCV and treated after 24 hours with a range of small molecule concentrations. The amount of infectious virus released to the supernatants at 48 hours post-infection/24 hours post-treatment was measured using a 50% tissue infectious dose (TCID50) assay. The concentration of compound that led to a 50% reduction in viral titers (IC50) was determined by non-linear regression.

[3] = Huh7.5 cells, 48 hours post-electroporation/24 hours post-treatment

| SMILES | effect of lenalidomide on compound-induced degradation of NS3 (HCV NS3 fusion protein) | degradation of HCV NS3 by Western blot [2] | DC50 [2] | IC50 [1, 3] | degradation of transiently expressed HCV NS3 (decrease in NS3-eGFP abundance) [2] | degradation of NS3 in the presence or absence of lenalidomide (HCV NS3 fusion protein) | also measured |
| --- | --- | --- | --- | --- | --- | --- | --- |
| CCC[C@H](NC(=O)[C@@H]1[C@H]2CCC[C@H]2CN1C(=O)[C@@H](NC(=O)[C@@H](NC(=O)c1cnc(C(=O)NCCCCCCNc2cccc3c2CN(C2CCC(=O)NC2=O)C3=O)cn1)C1CCCCC1)C(C)(C)C)C(=O)C(=O)NC1CC1 (stereo partly drawn) [Compound 1, N2-((S)-1-cyclohexyl-2-((S)-1-((1S,3aR,6aS)-1-((S)-1-(cyclopropylamino)-1,2-dioxohexan-3-ylcarbamoyl)hexahydrocyclopenta[c]pyrrol-2(1H)-yl)-3,3-dimethyl-1-oxobutan-2-ylamino)-2-oxoethyl)-N5-(6-(2-(2,6-dioxopiperidin-3-yl)-1-oxoisoindolin-4-ylamino)hexyl)pyrazine-2,5-dicarboxamide] | Lenalidomide inhibited degradation of NS3 | specific reduction in steady-state abundance | 669 nM |  |  |  | IC50 ([1]; Huh7.5, 48 h): 3040 nM |
| CCC[C@H](NC(=O)[C@@H]1[C@H]2CCC[C@H]2CN1C(=O)[C@@H](NC(=O)[C@@H](NC(=O)c1cnc(C(=O)NCCOCCOCCNc2cccc3c2C(=O)N(C2CCC(=O)NC2=O)C3=O)cn1)C1CCCCC1)C(C)(C)C)C(=O)C(=O)NC1CC1 (stereo partly drawn) [Compound 3, N2-((S)-1-cyclohexyl-2-((S)-1-((1S,3aR,6aS)-1-((S)-1-(cyclopropylamino)-1,2-dioxohexan-3-ylcarbamoyl)hexahydrocyclopenta[c]pyrrol-2(1H)-yl)-3,3-dimethyl-1-oxobutan-2-ylamino)-2-oxoethyl)-N5-(2-(2-(2-(2-(2,6-dioxopiperidin-3-yl)-1,3-dioxoisoindolin-4-ylamino)ethoxy)ethoxy)ethyl)pyrazine-2,5-dicarboxamide] | Lenalidomide inhibited degradation of NS3 | specific reduction in steady-state abundance |  | 2620 nM |  |  | IC50 (HCV in Huh7.5 cells): 2920 nM |
| CCC[C@H](NC(=O)[C@@H]1[C@H]2CCC[C@H]2CN1C(=O)[C@@H](NC(=O)[C@@H](NC(=O)c1cnc(C(=O)NCCCCCCCC(=O)Nc2cccc3c2CN(C2CCC(=O)NC2=O)C3=O)cn1)C1CCCCC1)C(C)(C)C)C(=O)C(=O)NC1CC1 (stereo partly drawn) [Compound 4, N2-((S)-1-cyclohexyl-2-((S)-1-((1S,3aR,6aS)-1-((S)-1-(cyclopropylamino)-1,2-dioxohexan-3-ylcarbamoyl)hexahydrocyclopenta[c]pyrrol-2(1H)-yl)-3,3-dimethyl-1-oxobutan-2-ylamino)-2-oxoethyl)-N5-(8-(2-(2,6-dioxopiperidin-3-yl)-1-oxoisoindolin-4-ylamino)-8-oxooctyl)pyrazine-2,5-dicarboxamide] | Lenalidomide inhibited degradation of NS3 | specific reduction in steady-state abundance | 2680 nM | 1320 nM |  |  |  |
| CCC[C@H](NC(=O)[C@@H]1[C@H]2CCC[C@H]2CN1C(=O)[C@@H](NC(=O)[C@@H](NC(=O)c1cnc(C(=O)NCCOCCOCCNc2cccc3c2C(=O)N(C2CCC(=O)NC2=O)C3=O)cn1)C1CCCCC1)C(C)(C)C)C(O)C(=O)NC1CC1 (stereo partly drawn) [Compound 11, N2-((1S)-1-cyclohexyl-2-((2S)-1-((1S,3aR,6aS)-1-((3S)-1-(cyclopropylamino)-2-hydroxy-1-oxohexan-3-ylcarbamoyl)hexahydrocyclopenta[c]pyrrol-2(1H)-yl)-3,3-dimethyl-1-oxobutan-2-ylamino)-2-oxoethyl)-N5-(2-(2-(2-(2-(2,6-dioxopiperidin-3-yl)-1,3-dioxoisoindolin-4-ylamino)ethoxy)ethoxy)ethyl)pyrazine-2,5-dicarboxamide] |  |  |  |  | did not mediate degradation |  |  |
| CCC[C@H](NC(=O)[C@@H]1[C@H]2CCC[C@H]2CN1C(=O)[C@@H](NC(=O)[C@@H](NC(=O)c1cnc(C(=O)NCCOCCOCCNc2cccc3c2C(=O)N(C2CCC(=O)N(C)C2=O)C3=O)cn1)C1CCCCC1)C(C)(C)C)C(=O)C(=O)NC1CC1 (some centres unmarked) [Compound 20] |  |  |  |  |  | no significant degradation of NS3 |  |
| CCC[C@H](NC(=O)[C@@H]1[C@H]2CCC[C@H]2CN1C(=O)[C@@H](NC(=O)[C@@H](NC(=O)c1cnc(C(=O)NCCOCCOCCOc2cc3c4c(cccc4c2)C(=O)N(C2CCC(=O)N(C)C2=O)C3=O)cn1)C1CCCCC1)C(C)(C)C)C(=O)C(=O)NC1CC1 (stereo partly drawn) [Compound 22, N2-((S)-1-cyclohexyl-2-((S)-1-((1S,3aR,6aS)-1-((S)-1-(cyclopropylamino)-1,2-dioxohexan-3-ylcarbamoyl)hexahydrocyclopenta[c]pyrrol-2(1H)-yl)-3,3-dimethyl-1-oxobutan-2-ylamino)-2-oxoethyl)-N5-(2-(2-(2-(2-(1-methyl-2,6-dioxopiperidin-3-yl)-1,3-dioxo-2,3-dihydro-1H-benzo[de]isoquinolin-5-yloxy)ethoxy)ethoxy)ethyl)pyrazine-2,5-dicarboxamide] |  |  |  |  | did not degrade HCV NS3 | no significant degradation of NS3 | binding to cereblon (concluded from degradation assay) ([2]; N-methylated glutarimide negative controls): unable to bind cereblon |
